Measurements as given in article PMC12439760 (Bioorganic & medicinal chemistry, 2025).
“And” between values parts separate entries of the source, which are not always exact repeats. Equal entries are not always repeated.

Tests used:
hCB1 receptor [1] = molecular target: T1, hCB1 receptor (Homo sapiens, UniProt P21554); assay: [3H]CP55940 radioligand displacement, CHO cell membranes overexpressing hCB1; type: binding
hCB2 receptor [2] = molecular target: T2, hCB2 receptor (Homo sapiens, UniProt P34972); assay: [3H]CP55940 radioligand displacement, CHO cell membranes overexpressing hCB2; type: binding
T2 sequence (P34972 whole entry): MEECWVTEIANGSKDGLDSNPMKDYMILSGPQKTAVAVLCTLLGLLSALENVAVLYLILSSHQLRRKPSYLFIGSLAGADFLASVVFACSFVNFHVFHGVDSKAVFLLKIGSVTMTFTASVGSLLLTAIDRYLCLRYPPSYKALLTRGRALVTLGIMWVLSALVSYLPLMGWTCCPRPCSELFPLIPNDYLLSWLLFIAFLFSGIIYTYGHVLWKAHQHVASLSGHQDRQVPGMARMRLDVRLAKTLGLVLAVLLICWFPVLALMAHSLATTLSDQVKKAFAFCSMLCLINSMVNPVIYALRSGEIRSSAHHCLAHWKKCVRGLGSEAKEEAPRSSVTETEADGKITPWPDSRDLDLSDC

Human liver microsome = type: in vitro ADME; settings: pooled human liver microsomes, pH 7.4
[3] = Mouse pharmacokinetic study; type: in vivo, C57BL/6 mice; settings: for plasma levels: mice, 3 mg/kg po, data not shown
[4] = test system: CYP3A4, CYP1A2 and CYP2B6; assay: Isoform-specific CYP induction assays in HepaRG cells, overall profile; type: cell-based, human; settings: data not shown
hCB1 receptor [5] = molecular target: T1, hCB1 receptor; assay: hCB1 Gαq16-coupled calcium mobilization assay in CHO-K1 cells; type: cell-based; settings: hCB1 Ca EC50, CHO cells expressing hCB1 and Gαq16, calcium mobilization
hCB2 receptor [6] = molecular target: T2, hCB2 receptor; assay: hCB2 Gαq16-coupled calcium mobilization assay in CHO-K1 cells; type: cell-based; settings: hCB2 Ca EC50, CHO cells expressing hCB2 and Gαq16, calcium mobilization
CYP1A2 = CYP1A2 induction assay in HepaRG cells; type: cell-based, human; settings: 10 μM, 24 hrs, % of positive control 50 μM omeprazole
CYP2B6 = CYP2B6 induction assay in HepaRG cells; type: cell-based, human; settings: 10 μM, 24 hrs, % of positive control 1 mM phenobarbital
CYP3A4 = CYP3A4 induction assay in HepaRG cells; type: cell-based, human; settings: 10 μM, 24 hrs, % of positive control 10 μM rifampicin

T1 sequence (P21554 whole entry): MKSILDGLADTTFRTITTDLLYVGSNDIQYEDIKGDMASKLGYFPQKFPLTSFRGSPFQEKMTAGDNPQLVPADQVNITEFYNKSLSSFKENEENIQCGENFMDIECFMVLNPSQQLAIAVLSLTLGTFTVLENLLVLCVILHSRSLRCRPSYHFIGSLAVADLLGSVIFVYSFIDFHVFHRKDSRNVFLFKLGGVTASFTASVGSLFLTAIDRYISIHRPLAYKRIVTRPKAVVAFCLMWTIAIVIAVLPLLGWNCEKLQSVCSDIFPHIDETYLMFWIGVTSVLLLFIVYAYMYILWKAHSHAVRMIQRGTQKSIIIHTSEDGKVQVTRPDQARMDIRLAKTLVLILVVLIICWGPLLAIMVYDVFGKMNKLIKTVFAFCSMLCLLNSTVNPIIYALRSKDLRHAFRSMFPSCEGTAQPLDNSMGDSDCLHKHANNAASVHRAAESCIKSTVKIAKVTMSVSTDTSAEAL

Structure (SMILES) | half-life at 1 μM (Human liver microsome) | microsomal CLint at 1 μM (Human liver microsome) | EC50 (hCB1 receptor [5]) | EC50 (hCB2 receptor [6]) | other results
CC(C)(NC(=O)c1nn(CC2CCOCC2)c2ccccc12)c1cccc(C(N)=O)c1 [Compound 51, N-[2-(3-Carbamoylphenyl)propan-2-yl]-1-(oxan-4-ylmethyl)-1H-indazole-3-carboxamide] | 3.13 h | 3.3 µL/min/mg |  |  | Ki (hCB1 receptor [1]): 150 nM; Ki (hCB2 receptor [2]): 56 nM; plasma levels [3]: < 30 ng/mL; CYP induction profile (in words) [4]: profile similar to that of 45
CC(C)(NC(=O)c1nn(Cc2ccc(F)cc2F)c2ccccc12)c1cccc(C(N)=O)c1 [Compound 45, N-[2-(3-Carbamoylphenyl)propan-2-yl]-1-[(2,4-difluorophenyl)methyl]-1H-indazole-3-carboxamide] | > 3.33 h | < 5 µL/min/mg | 151 ± 32 nM | 35 ± 6 nM | CYP1A2 Induction (% of Omeprazole) (CYP1A2): 20%; CYP2B6 Induction (% of Phenobarbital) (CYP2B6): 6%; CYP3A4 Induction (% of Rifampicin) (CYP3A4): 66%; Max. Conc. Brain ([3]; mouse, PO 3 mg/kg, at 0.5 h): 11 ng/mL; Max. Conc. Liver ([3]; mouse, PO 3 mg/kg, at 0.5 h): 920 ng/mL; Max. Conc. Plasma ([3]; mouse, PO 3 mg/kg, at 0.5 h): 160 ng/mL; Plasma Half-life (HL) ([3]; mouse, PO 3 mg/kg, 3 mg/kg): 7.3 h
CC(F)(F)CCCn1nc(C(=O)NC(C)(C)c2cccc(C(N)=O)c2)c2ccccc21 [Compound 53, N-[2-(3-Carbamoylphenyl)propan-2-yl]-1-(4,4-difluoropentyl)-1H-indazole-3-carboxamide] | 2.67 h | 7.9 µL/min/mg | 463 ± 187 nM | 3420 ± 151 nM | Ki (hCB1 receptor [1]): 54 nM; Ki (hCB2 receptor [2]): 75 nM
CC(C)(NC(=O)c1nn(Cc2ccc(F)cc2)c2ccccc12)C1CCCN(C(N)=O)C1 (centres unmarked) [Compound 31, N-[2-(1-Carbamoylpiperidin-3-yl)propan-2-yl]-1-[(4-fluorophenyl)methyl]-1H-indazole-3-carboxamide] | 0.433 h |  |  | 29 ± 4 nM | Ki (hCB1 receptor [1]): 49 nM; Ki (hCB2 receptor [2]): 27 nM
CC(C)(NC(=O)c1nn(CC2CCC(F)(F)CC2)c2ccccc12)c1cccc(C(N)=O)c1 [Compound 50, N-[2-(3-Carbamoylphenyl)propan-2-yl]-1-[(4,4-difluorocyclohexyl)methyl]-1H-indazole-3-carboxamide] | > 3.33 h | < 5 µL/min/mg |  |  | Ki (hCB1 receptor [1]): 2.5 nM; Ki (hCB2 receptor [2]): 3 nM; plasma levels [3]: < 30 ng/mL; CYP induction profile (in words) [4]: profile similar to that of 45
CC(C)(NC(=O)c1nn(Cc2ccc(F)cc2)c2ccccc12)C1CCCN(CC(N)=O)C1 (centres unmarked) [Compound 34, N-{2-[1-(Carbamoylmethyl)piperidin-3-yl]propan-2-yl}-1-[(4-fluorophenyl)methyl]-1H-indazole-3-carboxamide] | < 0.333 h |  | 369 ± 57 nM | 28 ± 13 nM | 
CC(C)(NC(=O)c1nn(CCCCCF)c2ccccc12)c1cccc(C(N)=O)c1 [Compound 54, N-[2-(3-Carbamoylphenyl)propan-2-yl]-1-(5-fluoropentyl)-1H-indazole-3-carboxamide] | 1.02 h | 10 µL/min/mg | 84 ± 6 nM |  | plasma levels [3]: < 30 ng/mL; CYP induction profile (in words) [4]: profile similar to that of 45
CC(C)(NC(=O)c1nn(CCCCC#N)c2ccccc12)c1cccc(C(N)=O)c1 [Compound 56, N-[2-(3-Carbamoylphenyl)propan-2-yl]-1-(4-cyanobutyl)-1H-indazole-3-carboxamide] | 3 h | 7 µL/min/mg | 731 ± 161 nM | 760 ± 175 nM | 
CC(C)(NC(=O)c1nn(CC2CCCC2)c2ccccc12)c1cccc(C(N)=O)c1 [Compound 48, N-[2-(3-Carbamoylphenyl)propan-2-yl]-1-(cyclopentylmethyl)-1H-indazole-3-carboxamide] | 0.367 h | 58 µL/min/mg | 893 ± 192 nM | 613 ± 351 nM | 
CC(C)(NC(=O)c1nn(Cc2ccc(F)cc2)c2ccccc12)C(=O)N1CCC[C@H]1C(N)=O [Compound 14, N-{1-[(2S)-2-Carbamoylpyrrolidin-1-yl]-2-methyl-1-oxopropan-2-yl}-1-[(4-fluorophenyl)methyl]-1H-indazole-3-carboxamide] | 10.2 h | 2 µL/min/mg | ~20 nM and 20 nM | 16 ± 1 nM | Ki (hCB1 receptor [1]): 4 nM; Ki (hCB2 receptor [2]): 6 nM
CC(C)(NC(=O)c1nn(Cc2ccc(F)cc2)c2ccccc12)c1cccc(C(N)=O)c1 [Compound 24, N-[2-(3-Carbamoylphenyl)propan-2-yl]-1-[(4-fluorophenyl)methyl]-1H-indazole-3-carboxamide] | 2.05 h | 5 µL/min/mg | 25 ± 5 nM |  | CYP1A2 Induction (% of Omeprazole) (CYP1A2): <1%; CYP2B6 Induction (% of Phenobarbital) (CYP2B6): <1%; CYP3A4 Induction (% of Rifampicin) (CYP3A4): <1%; Max. Conc. Brain ([3]; mouse, IP 2.5 mg/kg, at 0.25 h): 1.4 ng/mL; Max. Conc. Liver ([3]; mouse, IP 2.5 mg/kg, at 0.25 h): 650 ng/mL; Max. Conc. Plasma ([3]; mouse, IP 2.5 mg/kg, at 0.25 h): 72 ng/mL
CC(C)(NC(=O)c1nn(Cc2ccc(C#N)cc2)c2ccccc12)c1cccc(C(N)=O)c1 [Compound 44, N-[2-(3-Carbamoylphenyl)propan-2-yl]-1-[(4-cyanophenyl)methyl]-1H-indazole-3-carboxamide] | > 3.33 h | < 5 µL/min/mg | 234 ± 154 nM | > 10000 nM | 
CC(C)(NC(=O)c1nn(CCCCC(F)(F)F)c2ccccc12)c1cccc(C(N)=O)c1 [Compound 55, N-[2-(3-Carbamoylphenyl)propan-2-yl]-1-(5,5,5-trifluoropentyl)-1H-indazole-3-carboxamide] | 1.7 h | 6 µL/min/mg | 156 ± 35 nM | 341 ± 145 nM | 
CCCCCn1nc(C(=O)NC(C)(C)c2cccc(C(N)=O)c2)c2ccccc21 [Compound 52, N-[2-(3-Carbamoylphenyl)propan-2-yl]-1-pentyl-1H-indazole-3-carboxamide] | 0.533 h | 19 µL/min/mg | 202 ± 16 nM | 175 ± 32 nM | 
CC(C)(NC(=O)c1nn(Cc2ccc(F)cc2)c2ccccc12)C(=O)Nc1cccc(C(N)=O)c1 [Compound 12, 3-[2-({1-[(4-Fluorophenyl)methyl]-1H-indazol-3-yl}formamido)-2-methylpropanamido]benzamide] |  |  | 360 ± 88 nM | 360 ± 48 nM | 
NC(=O)C1(NC(=O)c2nn(Cc3ccc(F)cc3)c3ccccc23)CCCC1 [Compound 9, N-(1-Carbamoylcyclopentyl)-1-[(4-fluorophenyl)methyl]-1H-indazole-3-carboxamide] |  |  | 1240 ± 17 nM | 63 ± 6 nM | 
NC(=O)CN1CCC[C@H](CNC(=O)c2nn(Cc3ccc(F)cc3)c3ccccc23)C1 [Compound 33, N-{[(3R)-1-(Carbamoylmethyl)piperidin-3-yl]methyl}-1-[(4-fluorophenyl)methyl]-1H-indazole-3-carboxamide] |  |  | 239 ± 76 nM | 170 ± 24 nM | 
NC(=O)[C@@H](NC(=O)c1nn(Cc2ccc(F)cc2)c2ccccc12)c1ccccc1 [Compound 7, (2S)-2-({1-[(4-Fluorophenyl)methyl]-1H-indazol-3-yl}formamido)-2-phenylacetamide] |  |  | 178 ± 55 nM | 42 ± 9 nM | 
NC(=O)[C@H](Cc1ccccc1)NC(=O)c1nn(Cc2ccc(F)cc2)c2ccccc12 [Compound 8, (2S)-2-({1-[(4-Fluorophenyl)methyl]-1H-indazol-3-yl}formamido)-3-phenylpropanamide] |  |  | 337 ± 33 nM | 59 ± 7 nM | 
